# Activity calls are given as the source filed them.
# What was measured:
# [1] = viability inhibitors of stage V gametocytes – luminescence, dose response (AID 1117278); type: functional, cell-based;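 also: gametocytes exposed to compound for 24 hours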
# [2] = viability loss in human Jurkat cells – cell-based, luminescence, cytotoxicity control for P. falciparum gametocyte viability project, dose response (AID 1117277); type: functional;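 also: potency reflects loss of cellular ATP meaning fewer viable cells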
# [3] = target: T1, Aryl hydrocarbon receptor (Homo sapiens, UniProt P35869); assay: Luminescence-based cell-based high throughput dose response assay for activators of the Aryl Hydrocarbon Receptor (AHR). [Related pubchem assays: 2796 (Primary screen (AHR activators in singlicate)), 2845 (Confirmation screen (AHR activators in triplicate)), 434939 (Counterscreen (PXR activators in triplicate)), 2804 (Summary (AHR activators))]; type: ADME
# T1 sequence (P35869 whole entry): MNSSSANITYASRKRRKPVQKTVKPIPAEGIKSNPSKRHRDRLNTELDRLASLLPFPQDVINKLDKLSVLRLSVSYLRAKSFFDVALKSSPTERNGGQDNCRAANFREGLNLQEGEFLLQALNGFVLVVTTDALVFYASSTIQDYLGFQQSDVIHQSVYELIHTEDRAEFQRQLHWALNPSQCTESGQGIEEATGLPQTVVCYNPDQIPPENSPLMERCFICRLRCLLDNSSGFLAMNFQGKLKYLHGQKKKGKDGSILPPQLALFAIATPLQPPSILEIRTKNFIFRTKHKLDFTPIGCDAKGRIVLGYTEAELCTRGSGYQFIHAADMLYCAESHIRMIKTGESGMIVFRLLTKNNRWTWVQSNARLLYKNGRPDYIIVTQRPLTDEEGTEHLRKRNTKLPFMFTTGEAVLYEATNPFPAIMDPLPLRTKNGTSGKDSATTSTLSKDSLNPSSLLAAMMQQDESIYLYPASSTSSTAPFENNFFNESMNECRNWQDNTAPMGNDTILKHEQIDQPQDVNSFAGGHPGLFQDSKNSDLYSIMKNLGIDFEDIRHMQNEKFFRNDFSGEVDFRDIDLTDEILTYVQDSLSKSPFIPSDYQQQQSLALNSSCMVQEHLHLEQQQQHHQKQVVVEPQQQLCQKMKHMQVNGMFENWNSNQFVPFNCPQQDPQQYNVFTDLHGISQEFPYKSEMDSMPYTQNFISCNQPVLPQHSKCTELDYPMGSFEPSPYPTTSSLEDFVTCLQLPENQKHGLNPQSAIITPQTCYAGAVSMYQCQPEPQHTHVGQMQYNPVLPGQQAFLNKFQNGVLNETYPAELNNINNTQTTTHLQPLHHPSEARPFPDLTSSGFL
# [4] = target: T2, Luciferin 4-monooxygenase (Photinus pyralis, UniProt P08659); assay: Counter Screen for Luciferase-based Assay Positives. [Related pubchem assays: 620, 618, 411 ]
# [5] = target: T2, Luciferin 4-monooxygenase; assay: inhibition of purified Photinus pyralis luciferase – biochemical, luminescence, dose response (AID 1891)
# [6] = Luminescence Cell-Based Dose Confirmation HTS to Identify Inhibitors of Platelet Dense Granule Release. [Related pubchem assays: 1663 (Primary HTS), 1678 (Summary of Project)]; type: functional
# [7] = viability of PTEN-deleted HCT116 cells – cell-based, HCT116 PTEN knockout, dose response (AID 1047); type: functional;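 also: HCT116 colon tumor cells with PTEN knocked out; cells exposed to compound for 60 hours before readout; potency for loss of cell viability measured by luminescence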
# HT-1080 = assay: HT1080 cell viability loss – fluorescence readout (AID 620); type: functional, cell-based; details: Homo sapiens
# [8] = viability of HCT116 lacking mutant beta-catenin – cell-based, human colon tumor, dose response (AID 1045); type: functional;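 also: HCT116 colon tumor cells with beta catenin knocked out; cells exposed to compound for 60 hours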
# [9] = target: T3, Oxysterols receptor LXR-beta (Homo sapiens, UniProt P55055); type: functional, cell-based;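 also: Cell-based luminescence dose-response assay of agonist activity at LXR, run as a confirmatory counterscreen to a daf-12 agonist screen; HEK293 cells with Gal4-LXR fusion and GAL4-driven luciferase reporter; agonist potency from rising luciferase signal of a Gal4-LXR reporter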
# T3 sequence (P55055 whole entry): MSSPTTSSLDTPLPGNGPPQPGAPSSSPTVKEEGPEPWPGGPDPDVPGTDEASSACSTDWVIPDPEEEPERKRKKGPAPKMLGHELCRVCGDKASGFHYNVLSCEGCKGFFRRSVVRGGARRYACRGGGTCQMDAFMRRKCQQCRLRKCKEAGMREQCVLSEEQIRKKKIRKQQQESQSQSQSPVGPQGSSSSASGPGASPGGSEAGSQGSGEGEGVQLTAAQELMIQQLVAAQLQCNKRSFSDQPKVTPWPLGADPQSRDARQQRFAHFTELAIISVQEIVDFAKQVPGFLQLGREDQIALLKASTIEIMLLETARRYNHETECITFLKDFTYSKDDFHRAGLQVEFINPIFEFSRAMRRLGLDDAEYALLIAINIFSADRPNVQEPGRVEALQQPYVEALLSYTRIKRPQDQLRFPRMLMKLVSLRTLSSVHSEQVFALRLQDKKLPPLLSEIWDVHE
# cells [10] = assay: cells
# [11] = T. cruzi growth inhibition in host cells, dose response, cell-based, plate reader, dry powder, set 2 (AID 652275); type: functional
# fMet-Leu-Phe receptor = target: T4, fMet-Leu-Phe receptor (Homo sapiens, UniProt P21462); assay: formyl peptide receptor binders – dose response (AID 519); type: functional
# T4 sequence (P21462 whole entry): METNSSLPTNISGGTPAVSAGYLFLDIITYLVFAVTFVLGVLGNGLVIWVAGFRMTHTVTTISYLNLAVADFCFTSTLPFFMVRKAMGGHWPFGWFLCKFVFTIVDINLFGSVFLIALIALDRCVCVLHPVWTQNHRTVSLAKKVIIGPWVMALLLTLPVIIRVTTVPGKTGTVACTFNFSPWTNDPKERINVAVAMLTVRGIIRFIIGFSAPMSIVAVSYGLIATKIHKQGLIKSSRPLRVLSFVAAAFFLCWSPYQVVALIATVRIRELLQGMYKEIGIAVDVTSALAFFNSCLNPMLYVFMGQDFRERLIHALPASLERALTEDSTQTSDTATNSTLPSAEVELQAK
# [12] = target: Mitogen-activated protein kinase 10 (Homo sapiens, UniProt P53779); assay: Dose response biochemical screening assay for inhibitors of c-Jun N-Terminal Kinase 3 (JNK3). [Related pubchem assays: 746 ]
# Cytochrome P450 3A4 = Cytochrome P450 3A4 (Homo sapiens, UniProt P08684);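 also: CYP3A4 tested as one member of a cytochrome P450 panel screen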
# [13] = blockers of HIV-1 envelope-mediated cell-cell fusion – cherry-pick, dose response (AID 652057); type: functional, cell-based
# [14] = viability loss in CEM21 cells – cell-based, CellTiter-Glo luminescence, cherry-picked, cytotoxicity control for viral fusion inhibitor project, dose response (AID 652042); type: functional;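 also: potency for signal decrease meaning cytotoxicity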
# [15] = blockers of HIV-1 ZM109 envelope-driven cell-cell fusion – HeLa effector, CEM target cells, luciferase, cherry-pick, dose response (AID 652058); type: functional, cell-based;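 also: luciferase signal from HIV-1 Env mediated cell-cell fusion of effector and target cells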
# [16] = off-target signal loss in HeLa-CEM21 co-culture – HeLa F-luc CTL cells, cherry-picked, counter-screen for HIV-1 Env fusion inhibitor project, dose response (AID 652040); type: functional, cell-based;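 also: potency for signal decrease marking cytotoxic or nonspecific inhibition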
# [17] = HIV-1 AD8 envelope cell-cell fusion blockers – cherry-pick, dose response (AID 652062); type: functional, cell-based;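 also: luciferase signal from cell-cell fusion driven by HIV-1 clade B AD8 Env; potency is for inhibitors of fusion seen as a drop in luminescence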
# [18] = Luminescence Cell-Based Dose Response to Identify Activators of 5'UTR Stem-Loop Driven Prion Protein mRNA Translation in H4-C Neuroglioblastoma Cells. [Related pubchem assays: 1829 (Project Summary), 1814 (Primary HTS)]; type: functional
# [19] = Luminescence Cell-Based Dose Confirmation HTS to Identify Activators of 5'UTR Stem-Loop Driven Alpha-Synuclein mRNA Translation in H4 Neuroglioblastoma Cells. [Related pubchem assays: 1829 (Project Summary), 1814 (Primary HTS)]; type: functional
# [20] = Luminescence Cell-Based Dose Response HTS to Identify Activators of Luciferase Translation or Activity in H4 […] Cells. [Related pubchem assays: 1829 (Project Summary), 1814 (Primary HTS)]; type: functional
# H4 = assay: Luminescence Cell-Based Dose Response HTS to Identify Activators of 5'UTR Stem-Loop Driven Prion Protein mRNA Translation in H4 Neuroglioblastoma Cells. [Related pubchem assays: 1829 (Project Summary), 1814 (Primary HTS)]; type: functional; details: Homo sapiens
# [21] = Luminescence Cell-Based Dose Response to Identify Activators of Luciferase Translation or Activity in H4-C Neuroglioblastoma Cells. [Related pubchem assays: 1829 (Project Summary), 1814 (Primary HTS)]; type: functional
# [22] = Luminescence Cell-Based Dose Confirmation to Identify Activators of 5'UTR Stem-Loop Driven Alpha-Synuclein mRNA Translation in H4 Neuroglioblastoma Cells. [Related pubchem assays: 1829 (Project Summary), 1814 (Primary HTS)]; type: functional
# Major prion protein = Major prion protein (Homo sapiens, UniProt P04156); type: functional, cell-based
# cells [23] = assay: cells; remark: listed apart in the source
# Protein skinhead-1 = target: T5, Protein skinhead-1 (Caenorhabditis elegans, UniProt P34707); type: functional
# T5 sequence (P34707 whole entry): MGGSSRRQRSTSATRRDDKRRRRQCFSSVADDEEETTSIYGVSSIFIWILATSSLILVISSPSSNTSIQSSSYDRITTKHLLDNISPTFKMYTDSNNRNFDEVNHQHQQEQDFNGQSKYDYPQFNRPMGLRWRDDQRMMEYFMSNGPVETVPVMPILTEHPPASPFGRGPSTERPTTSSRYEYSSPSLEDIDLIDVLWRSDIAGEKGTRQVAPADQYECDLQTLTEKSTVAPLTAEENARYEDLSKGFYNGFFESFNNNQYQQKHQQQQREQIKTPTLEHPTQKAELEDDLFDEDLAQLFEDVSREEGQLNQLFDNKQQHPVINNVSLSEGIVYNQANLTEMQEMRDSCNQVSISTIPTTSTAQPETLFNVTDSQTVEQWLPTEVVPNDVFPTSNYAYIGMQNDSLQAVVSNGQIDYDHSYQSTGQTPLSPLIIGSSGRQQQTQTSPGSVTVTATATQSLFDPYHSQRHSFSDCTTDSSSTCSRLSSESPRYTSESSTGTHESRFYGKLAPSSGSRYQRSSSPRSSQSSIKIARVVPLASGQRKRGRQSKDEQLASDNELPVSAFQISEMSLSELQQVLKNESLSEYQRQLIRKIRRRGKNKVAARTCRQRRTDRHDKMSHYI
structure (smiles),measurement,setting,value
Cc1cc(C)cc(COn2ccnc2)c1,IC50,[1],> 109 µM (inactive)
same,IC50,[2],> 83.4 µM (inactive)
CC(=O)Nc1cccc(OCC(=O)Nc2ccc(F)cc2)c1,EC50,[3],10.6 µM (not active)
Cc1ccc(-c2nc(N/N=C/c3ccncc3)c3ccccc3n2)cc1,EC50,[4],7.97 µM (active)
same,EC50,[5],0.158 µM (active)
same,EC50,[6],0.209 µM (active)
same,EC50,[7],59.3 µM (active)
same,EC50,HT-1080,> 50 µM (not active)
same,EC50,[8],43.7 µM (active)
same,EC50,[9],> 67.5 µM (inactive)
same,EC50,cells [10],> 67.5 µM (inactive)
O=C(O)CCN1C(=O)c2ccc(NC(=O)c3ccco3)cc2C1=O,IC50,[1],> 109 µM (inactive)
same,IC50,[2],> 83.2 µM (inactive)
CC(C)c1ccc(-n2nc3ccc(N)cc3n2)cc1,EC50,[9],> 67.6 µM (inactive)
same,EC50,cells [10],> 67.6 µM (inactive)
CC(C)N1CC[C@@H](CNCc2ccc(Oc3ccccc3)cc2)Oc2c(NC(=O)c3ccncc3)cccc2C1=O,AC50,[11],0.083 µM (active)
Cc1ccc(NC(=O)C2C(=O)N(CCO)C3(C)CC2c2ccccc2O3)cc1 (stereo not given),Ki,fMet-Leu-Phe receptor,> 66.7 µM (inactive)
COc1ccc(-c2cn3cccnc3n2)cc1NC(=O)C1CC1,Ki,fMet-Leu-Phe receptor,> 66.7 µM (inactive)
CC(C)N1C[C@H](CNCc2ccc(Oc3ccccc3)cc2)Oc2c(NC(=O)c3ccncc3)cccc2C1=O,AC50,[11],0.0164 µM (active)
COc1cccc2c(O)c(C(=O)NCc3cccs3)cnc12,IC50,[12],18.9 µM (not active)
same,AC50,Cytochrome P450 3A4,1.78 µM (inconclusive)
CC(=O)Nc1cccc2c1C(=O)N(c1ccc(C)cc1)C2=O,EC50,[3],1.09 µM (active)
NC(=O)c1c(Br)n(C2OC(CO)C(O)C2O)c2ncnc(N)c12 (stereo not given),AC50,[13],3.32 µM (active)
same,AC50,[14],3.1 µM (active)
same,AC50,[15],5 µM (active)
same,AC50,[16],28 µM (active)
same,AC50,[17],7.68 µM (active)
COc1cc(C2NC(=O)NC(C)=C2C(=O)OC2CCCC(C)C2)ccc1O (stereo not given),IC50,[12],39.4 µM (not active)
CC(=O)Nc1ccc(N(C(=O)CNC(=O)c2ccco2)C(C(=O)NCC2CCCO2)c2ccccc2)cc1 (stereo not given),IC50,[1],> 109 µM (inactive)
same,IC50,[2],> 83.3 µM (inactive)
Cc1cccc(-c2ccc([C@H]3[C@H](CO)N4CCCCN(C(=O)c5cccnc5)C[C@@H]34)cc2)c1,AC50,[11],2.3 µM (active)
Cc1ccc2c(c1)Cc1nc3ccccc3nc1-2,EC50,[9],> 67.6 µM (inactive)
same,EC50,cells [10],> 67.6 µM (inactive)
CCc1ccc(OCC(=O)NCC(c2ccc(Cl)cc2)N2CCCCC2)cc1 (stereo not given),AC50,[13],3.95 µM (active)
same,AC50,[14],28.4 µM (active)
same,AC50,[15],4.51 µM (active)
same,AC50,[16],9.03 µM (active)
same,AC50,[17],8.41 µM (active)
Oc1ncnc2nn(-c3ccccc3)nc12,EC50,[18],4.54 µM (active)
same,EC50,[19],< 0.1 µM (active)
same,EC50,[20],> 120 µM (not active)
same,EC50,H4,> 120 µM (not active)
same,EC50,[21],> 12 µM (not active)
same,EC50,[22],> 12 µM (not active)
CC(=O)SCC(=O)/N=c1\sc2cc(F)ccc2n1C,Ki,fMet-Leu-Phe receptor,22.8 µM (inactive)
CCOc1c(Cl)cc(C(=O)Nc2cccc(C(=O)O)c2)cc1Cl,IC50,[1],> 109 µM (inactive)
same,IC50,[2],> 83.2 µM (inactive)
O=C(O)CCSc1ccc2ccccc2n1,IC50,[12],34.8 µM (not active)
same,IC50,Major prion protein,3.19 µM (active)
same,IC50,cells [23],> 138 µM (inactive)
CCc1cc(/C(Cc2ccc3ccccc3n2)=N\O)c(O)cc1O,EC50,[3],> 3.39 µM (active)
O=C(NCc1nc2ccccc2[nH]1)c1cccs1,IC50,[12],43 µM (not active)
Cc1nc(N)nc(Nc2ccc(Cl)cc2)c1Br,EC50,[3],0.351 µM (active)
COc1ccc(-c2nnc(-c3ccc(Br)o3)o2)cc1OC,IC50,[12],> 93.1 µM (not active)
same,IC50,Protein skinhead-1,> 100 µM (inactive)
same,IC50,Major prion protein,4.59 µM (active)
same,IC50,cells [23],> 138 µM (inactive)
COc1cccc(NC(=O)c2ccncc2)c1,IC50,[1],> 109 µM (inactive)
same,IC50,[2],> 83.4 µM (inactive)
CCCOc1ccc(C2C(C(=O)c3ccc(C)o3)=C(O)C(=O)N2Cc2cccnc2)cc1 (stereo not given),Ki,fMet-Leu-Phe receptor,42.7 µM (inactive)
